Experiments:
[1] = tested on: ADAMTS5, MMP13, Aggrecan Neo, aggrecan in tibial articular cartilage; experiment: IF staining of tibial articular cartilage of drug-treated DMM mice; type: in vivo, mouse; details: for aggrecan expression (IF staining, whole tibial articular surface): daily ip week 8 to 12, versus vehicle; for ADAMTS5 expression (IF staining, uncalcified cartilage) / Aggrecan Neo expression (IF staining, uncalcified cartilage) / MMP13 expression (IF staining, uncalcified cartilage): daily treatment week 8 to 12
Method: Drug treatment studies: In twelve-week old male wild type C57BL/6 mice that received DMM surgeries, vehicle (PBS), paroxetine (5 mg/kg/day), fluoxetine (5 mg/kg/day), gallein (10 mg/kg/day) or indomethacin (2.5 mg/kg/day) were administered daily by ip injection. Drug treatment was initiated 8 weeks following DMM to determine the role of GRK2 signaling in the progression of OA. Paraffin sections were deparaffinized in three changes of xylene for five minutes each, rehydrated in ethanol (two changes of 100% ethanol, followed by two changes of 95% ethanol, followed by one change of 70% ethanol) and rinsed twice in deionized water. Antigen retrieval was performed for 30 minutes at 37° C. using 0.4% pepsin (Sigma P-7000) in 0.1M hydrochloric acid (HCl) and was followed by permeabilization for 30 minutes at room temperature using Triton X in tris buffered saline (TBS). Sections were then blocked for 1 hour at room temperature in 10% normal goat serum in 1×TBS. Tissue sections were incubated overnight at 4° C. with the rabbit anti-mouse primary antibody specific for the target protein (detailed in Table 1). Following three 5-minute washes in 1×TBS, slides were incubated for 1 hour at room temperature with biotinylated goat anti-rabbit secondary antibody (Life Technologies, Waltham, MA, USA), washed again with 3 changes of 1×TBS and incubated for 1 hour at room temperature with Alexa fluor 647 Streptavidin. Finally, slides were washed with three changes of 1×TBS for 5 minutes each, followed by one wash with 1×TBS with tween 20 (TBST), and a final 5-minute wash in 1×TBS. Mounting and nuclear staining was performed using ProLong™ Gold antifade reagent with DAPI (Invitrogen, Waltham, MA, USA).

[2] = tested on: Gas activity (cAMP content in cartilage); experiment: cAMP assay in tibial articular cartilage of drug-treated DMM mice; type: in vivo, mouse
Method: Drug treatment studies: In twelve-week old male wild type C57BL/6 mice that received DMM surgeries, vehicle (PBS), paroxetine (5 mg/kg/day), fluoxetine (5 mg/kg/day), gallein (10 mg/kg/day) or indomethacin (2.5 mg/kg/day) were administered daily by ip injection. Drug treatment was initiated 8 weeks following DMM to determine the role of GRK2 signaling in the progression of OA. Short term drug treatment study: To evaluate the acute effect of drug treatments, GRK2^f/f mice received sham or DMM surgery followed by treatment with vehicle, paroxetine, gallein, fluoxetine, or indomethacin with the doses indicated above for 1 week beginning at 8 weeks post DMM. All mice were sacrificed 9 weeks post DMM, 21 weeks of age, for analysis of OA progression. Gas activity was measured by quantifying cAMP content in cartilage pooled from 3 mice. Tibial cartilage was dissected out and snap frozen in liquid Nitrogen. As positive control, tibial cartilage obtained from normal mice was treated with 0.5 mM 3-isobutyl-1-methylxanthine (IBMX) for 30 minutes, followed by 0.1 mM Forskolin for 15 minutes, then snap frozen in liquid Nitrogen. For human cartilage cAMP content, 70 mg frozen cartilage were used. Frozen cartilage was pulverized using 500 μL lysis buffer as we have previously described (H. K. Le Bleu, Anal Biochem, 518, 134-138 (2017)). cAMP content was quantified using the Cyclic AMP XP Assay kit (Cell Signaling, #4339) and following manufacturer's protocol, with 0.5 mM IBMX added to the lysis buffer to prevent phosphodiesterase mediated cAMP degradation during the extraction process. cAMP levels in different groups were normalized to that of sham mice or the vehicle treated human cartilage.

[3] = tested on: human OA cartilage; experiment: Ex vivo cultured human OA osteochondral plugs: IF staining and RT-qPCR; type: cell-based; details: paroxetine 5 μM or gallein 10 μM, 48 hrs
Text: An Institutional Review Board-approved protocol was executed to collect discarded de-identified cartilage from patients. For the experiment described in FIG. 3A, we obtained acutely injured human cartilage (from patients undergoing arthroscopic surgery 4 weeks following meniscal injury, N=6) and OA cartilage (from patients undergoing arthroplasty, N=6). Normal controls were obtained from amputees' knees (N=6). Cartilage was fixed in formalin then processed and embedded in paraffin, 5-μm sections were used for immunofluorescence (IF) staining. For the experiment described in FIG. 7, OA osteochondral tissue was collected from patients undergoing total knee arthroplasty. Osteochondral plugs (8-mm diameter) were obtained and bone was flushed with saline solution to remove all bone marrow and blood cells. Plugs were then cultured overnight in low glucose DMEM at 5% CO2 and 37° C. The next morning plugs were treated with either vehicle phosphate buffer saline (PBS), paroxetine (5 μM), or gallein (10 μM), and the drug-containing culture medium was replenished after 24 hrs. After 48 hrs, plugs were fixed for 7 days in 10% neutral buffered formalin (NBF), decalcified for 2 weeks in 10% w/v EDTA, embedded in paraffin, and […] were cut and mounted for histological and IF staining. Alternatively, the cartilage was shaved from plugs and flash-frozen in liquid nitrogen for RNA extraction as described below. mRNA was isolated from human cartilage using the method we published recently, yielding RNA Integrity Number (RIN) values above 7.0 (53). cDNA was prepared using Iscript cDNA synthesis kit from Bio-rad following the manufacturer's protocol. cDNAs were qPCR amplified using TaqMan Gene Expression Assays, with GAPDH as the house keeping gene (ThermoFisher Scientific; described in Table 2) and the 7500 Fast Real-Time PCR System (Applied Biosystems). Paraffin sections were deparaffinized in three changes of xylene for five minutes each, rehydrated in ethanol (two changes of 100% ethanol, followed by two changes of 95% ethanol, followed by one change of 70% ethanol) and rinsed twice in deionized water. Antigen retrieval was performed for 30 minutes at 37° C. using 0.4% pepsin (Sigma P-7000) in 0.1M hydrochloric acid (HCl) and was followed by permeabilization for 30 minutes at room temperature using Triton X in tris buffered saline (TBS). Sections were then blocked for 1 hour at room temperature in 10% normal goat serum in 1×TBS. Tissue sections were incubated overnight at 4° C. with the rabbit anti-mouse primary antibody specific for the target protein (detailed in Table 1).

[4] = 7 days of drug treatment from 8 weeks post-DMM

Row | SMILES | aggrecan expression (IF staining, whole tibial articular surface) [1] | ADAMTS5 expression (IF staining, uncalcified cartilage) [1] | Aggrecan Neo expression (IF staining, uncalcified cartilage) [1] | MMP13 expression (IF staining, uncalcified cartilage) [1] | cAMP levels in the articular cartilage [2, 4] | cAMP levels in the articular cartilage ([2]; daily ip week 8 to 12) | ADAMTS5 mRNA expression (RT-qPCR) [3] | ADAMTS5 protein expression (IF staining) [3] | GRK2 mRNA expression (RT-qPCR) [3] | GRK2 protein expression (IF staining) [3] | MMP13 mRNA expression (RT-qPCR) [3] | MMP13 protein expression (IF staining) [3]
1 | O=C1OC2(c3ccccc31)c1ccc(O)c(O)c1Oc1c2ccc(O)c1O [gallein] | enhanced | significantly decreased | significantly decreased | significantly decreased | restored | restored | did not achieve statistical significance | attenuated | not affected | reduced | did not achieve statistical significance | attenuated
2 | Fc1ccc([C@@H]2CCNC[C@H]2COc2ccc3c(c2)OCO3)cc1 [paroxetine] | enhanced | significantly decreased | significantly decreased | significantly decreased | restored | restored | significantly inhibited | significantly inhibited | not affected | reduced | significantly inhibited | significantly inhibited

Source: US20230404989A1, “GRK2 INHIBITION BY PAROXETINE AMELIORATES OSTEOARTHRITIS” (THE PENN STATE RESEARCH FOUNDATION, priority 2020, published 2023)
